The results in this text go back to PubChem BioAssay (NCI).

Some test systems named below: SNB-75 CNS; IGROV1 ovarian; MOLT-4 leukemia; HOP-62 NSCLC; NCI-H460 lung; TK-10 renal; KM12 colon; DU-145 prostate; SF-295 CNS; SF-268 CNS.
Experiment in all cases: inhibition of tumour cell growth, NCI panel, 48 h

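Each compound was tested at five concentrations against cells in 96-well plates for 48 hours. GI50: concentration for 50% inhibition of growth. TGI is the concentration that stops growth completely.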 Where only a bound is given, the exact number is not on record here.

Regarding `C=C1C(=O)O[C@H]2[C@H]1CC/C(COC(=O)NCc1cc(OC)cc(OC)c1)=C\CC[C@@]1(C)O[C@@H]21`, the GI50 in the assay on SNB-75 CNS is 1.99 µM; with IGROV1 ovarian, 2.12 µM; in the assay with MOLT-4 leukemia it was 2 µM; with HOP-62 NSCLC, 3.06 µM; in the assay on NCI-H460 lung it was 3.01 µM; with TK-10 renal, 1.66 µM. The GI50 with KM12 colon is 2.8 µM; in the assay on DU-145 prostate, 0.724 µM; in the assay with SF-295 CNS it was 7.78 µM; in the assay on SF-268 CNS, 2.46 µM. Also, the TGI was 12.7 µM with SNB-75 CNS; 7.66 µM in the assay with IGROV1 ovarian; 5.55 µM in the assay with MOLT-4 leukemia; 11.7 µM in the assay with HOP-62 NSCLC; 11.6 µM in the assay with NCI-H460 lung; 3.18 µM in the assay with TK-10 renal. For the same compound, the TGI in the assay with KM12 colon was 11 µM; in the assay with DU-145 prostate, 2.03 µM; with SF-295 CNS it was 22.3 µM; in the assay with SF-268 CNS, 9.9 µM.
In the case of `C=C(CN(C)C)C(=O)c1ccc(Oc2ccccc2)cc1`, the TGI was 35.5 µM with SNB-75 CNS; 30.8 µM in the assay on IGROV1 ovarian; 2.05 µM in the assay on MOLT-4 leukemia; 43.7 µM in the assay with HOP-62 NSCLC; 51.6 µM in the assay on NCI-H460 lung; 14.5 µM with TK-10 renal. Also, the TGI with KM12 colon stood at 29.8 µM; in the assay on DU-145 prostate, 27.6 µM; in the assay on SF-295 CNS, 38.3 µM; with SF-268 CNS, 32.5 µM.
In the case of `CSC1(CC(=O)N2CCCCC2)C(=O)Nc2ccccc21` (stereo not given), the TGI with SNB-75 CNS, in the assay with IGROV1 ovarian, with MOLT-4 leukemia, in the assay on HOP-62 NSCLC, in the assay with NCI-H460 lung and in the assay with TK-10 renal was greater than 100 µM throughout. Besides, the TGI in the assay with KM12 colon, in the assay with DU-145 prostate, in the assay on SF-295 CNS and in the assay with SF-268 CNS was greater than 100 µM in each case.
Regarding `CN1CCN(CC(=O)N2c3cccc4cccc(c34)N(C(=O)CN3CCN(C)CC3)C2c2cn(-c3ccccc3)nc2-c2cccc([N+](=O)[O-])c2)CC1`, the GI50 is 1.32 µM in the assay with SNB-75 CNS; 1.73 µM in the assay with IGROV1 ovarian; 2.21 µM in the assay on MOLT-4 leukemia; 2.02 µM in the assay with HOP-62 NSCLC; 2.23 µM in the assay on NCI-H460 lung; 2.42 µM in the assay on TK-10 renal. Besides, the GI50 was 1.85 µM in the assay on KM12 colon, 3.27 µM in the assay with DU-145 prostate, 1.9 µM in the assay on SF-295 CNS and 1.95 µM in the assay on SF-268 CNS. For the same compound, the TGI with SNB-75 CNS was found to be 2.71 µM; in the assay with IGROV1 ovarian, 3.71 µM; in the assay on MOLT-4 leukemia it was 5.94 µM; in the assay with HOP-62 NSCLC it was 5.52 µM; in the assay on NCI-H460 lung, 4.98 µM; with TK-10 renal it was 5.61 µM. The TGI amounted to 3.43 µM in the assay on KM12 colon, 10.4 µM with DU-145 prostate, 3.73 µM in the assay on SF-295 CNS and 4.95 µM in the assay with SF-268 CNS.
Turning to `O=S(=O)(Nc1ccccn1)c1ccc(N=Nc2ccc(O)c3ncccc23)cc1`, the GI50 in the assay on SNB-75 CNS was 0.675 µM; in the assay on IGROV1 ovarian, 1.35 µM; in the assay on MOLT-4 leukemia it was 1.37 µM; in the assay with HOP-62 NSCLC, 1.14 µM; in the assay on NCI-H460 lung it was 0.891 µM; in the assay with TK-10 renal, 2.82 µM. The GI50 in the assay on KM12 colon is 1.17 µM; with DU-145 prostate, 3.22 µM; in the assay with SF-295 CNS, 2.14 µM; with SF-268 CNS, 1.12 µM. Also, the TGI with SNB-75 CNS was 3.33 µM; in the assay on IGROV1 ovarian, 16.5 µM; in the assay on MOLT-4 leukemia it was greater than 23.9 µM; in the assay with HOP-62 NSCLC, 8.88 µM; in the assay with NCI-H460 lung it was 4.59 µM; with TK-10 renal, 7.31 µM. The TGI stood at 15 µM with KM12 colon, 26.7 µM in the assay with DU-145 prostate, 4.86 µM in the assay on SF-295 CNS and 50.7 µM in the assay with SF-268 CNS.
On to `Cc1nn(C)c2cc(N(C)c3ccnc(Nc4cccc(S(N)(=O)=O)c4)n3)ccc12`, for which the GI50 was 5.89 µM in the assay on SNB-75 CNS; 5.98 µM in the assay on IGROV1 ovarian; 6.62 µM in the assay with MOLT-4 leukemia; greater than 15 µM in the assay with HOP-62 NSCLC; 7.87 µM in the assay on NCI-H460 lung; 5.93 µM in the assay on TK-10 renal. Further, the GI50 in the assay with KM12 colon is 7.38 µM; in the assay with DU-145 prostate it was 7.18 µM; in the assay with SF-295 CNS, 10.1 µM; in the assay on SF-268 CNS it was 6.39 µM. The TGI was greater than 23.7 µM with SNB-75 CNS; greater than 18.9 µM in the assay with IGROV1 ovarian; greater than 23.8 µM with MOLT-4 leukemia; greater than 25 µM in the assay with HOP-62 NSCLC; greater than 25 µM in the assay on NCI-H460 lung; 24.4 µM with TK-10 renal. Besides, the TGI in the assay on KM12 colon, in the assay on DU-145 prostate, with SF-295 CNS and in the assay on SF-268 CNS was greater than 25 µM in each case.
Regarding `Oc1c(CN2CCN(c3ccccc3F)CC2)cc(Br)c2cccnc12`, the GI50 in the assay on SNB-75 CNS is 1.91 µM; in the assay with IGROV1 ovarian, 0.808 µM; in the assay on MOLT-4 leukemia, 0.743 µM; in the assay with HOP-62 NSCLC it was 0.596 µM; in the assay with NCI-H460 lung, 0.4 µM; with TK-10 renal, 5.45 µM. Besides, the GI50 is 0.672 µM with KM12 colon, 1.71 µM in the assay with DU-145 prostate, 2.92 µM with SF-295 CNS and 0.858 µM in the assay with SF-268 CNS. In addition, the TGI with SNB-75 CNS was greater than 100 µM; with IGROV1 ovarian, 14.5 µM; in the assay with MOLT-4 leukemia it was 5.92 µM; in the assay on HOP-62 NSCLC, 14.2 µM; with NCI-H460 lung, 9.26 µM; in the assay with TK-10 renal, 29 µM. Also, the TGI was greater than 100 µM in the assay on KM12 colon, 17.7 µM with DU-145 prostate, 42.1 µM in the assay on SF-295 CNS and greater than 100 µM with SF-268 CNS.
